Earlier results in US6455580B1, “Method and composition for antiviral therapy” (F&S Group, Inc., priority 1994, dated 2002).

Columns and labels:
[1] = not given; remark: listed apart in the source
[2] = animal studies; oleuropein itself or as component of plant tissue extracts

Structure (SMILES): COC(=O)C1=CO[C@@H](C)[C@@H](C=O)C1CC(=O)O (single isomer, unassigned; (-)) [(−)-elenolic acid]
- antiviral properties in vitro: antiviral properties in vitro
- antiviral activity in vivo [1]: little, if any, activity in vivo

Structure (SMILES): C/C=C1/[C@H](O[C@@H]2O[C@H](CO)[C@@H](O)[C@H](O)[C@H]2O)OC=C(C(=O)OC)[C@H]1CC(=O)OCCc1ccc(O)c(O)c1 [oleuropein]
- hypoglycemic and cardiovascular effects [2]: exhibit both hypoglycemic and cardiovascular effects
